# Test results taken from PubChem BioAssay (NCI).
#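 Briefly, cells in 96-well plates were exposed to five compound concentrations for 48 h, and endpoints were estimated by linear interpolation. Here, GI50 denotes the concentration required for 50% inhibition of growth. At the TGI there is no net growth.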
# Key:
# Assay in all cases: NCI anticancer screen, dose series, 48 h
# 786-0 renal = system: 786-0 renal
# A498 renal = system: A498 renal
# A549 NSCLC = system: A549 NSCLC
# ACHN renal = system: ACHN renal
# BT-549 breast = system: BT-549 breast
# CAKI-1 renal = system: CAKI-1 renal
# CCRF-CEM leukemia = system: CCRF-CEM leukemia
# COLO 205 colon = system: COLO 205 colon
# DU-145 prostate = system: DU-145 prostate
# EKVX NSCLC = system: EKVX NSCLC
# HCC-2998 colon = system: HCC-2998 colon
# HCT-116 colon = system: HCT-116 colon
# HCT-15 colon = system: HCT-15 colon
# HL-60(TB) leukemia = system: HL-60(TB) leukemia
# HOP-62 NSCLC = system: HOP-62 NSCLC
# HOP-92 NSCLC = system: HOP-92 NSCLC
# HS 578T breast = system: HS 578T breast
# HT29 colon = system: HT29 colon
# IGROV1 ovarian = system: IGROV1 ovarian
# K-562 leukemia = system: K-562 leukemia
# KM12 colon = system: KM12 colon
# LOX IMVI melanoma = system: LOX IMVI melanoma
# M14 melanoma = system: M14 melanoma
# MALME-3M melanoma = system: MALME-3M melanoma
# MCF7 breast = system: MCF7 breast
# MDA-MB-231 breast = system: MDA-MB-231 breast
# MDA-MB-435 = system: MDA-MB-435
# MOLT-4 leukemia = system: MOLT-4 leukemia
# NCI-H226 lung = system: NCI-H226 lung
# NCI-H23 lung = system: NCI-H23 lung
# NCI-H460 lung = system: NCI-H460 lung
# NCI-H522 lung = system: NCI-H522 lung
# NCI/ADR-RES ovarian = system: NCI/ADR-RES ovarian
# OVCAR-3 ovarian = system: OVCAR-3 ovarian
# OVCAR-4 ovarian = system: OVCAR-4 ovarian
# OVCAR-5 ovarian = system: OVCAR-5 ovarian
# OVCAR-8 ovarian = system: OVCAR-8 ovarian
# PC-3 prostate = system: PC-3 prostate
# RPMI-8226 leukemia = system: RPMI-8226 leukemia
# RXF 393 renal = system: RXF 393 renal
# SF-268 CNS = system: SF-268 CNS
# SF-295 CNS = system: SF-295 CNS
# SK-MEL-28 melanoma = system: SK-MEL-28 melanoma
# SK-MEL-5 melanoma = system: SK-MEL-5 melanoma
# SK-OV-3 ovarian = system: SK-OV-3 ovarian
# SN12C renal = system: SN12C renal
# SNB-19 CNS = system: SNB-19 CNS
# SNB-75 CNS = system: SNB-75 CNS
# SR leukemia = system: SR leukemia
# SW-620 colon = system: SW-620 colon
# T-47D breast = system: T-47D breast
# TK-10 renal = system: TK-10 renal
# U251 CNS = system: U251 CNS
# UACC-257 melanoma = system: UACC-257 melanoma
# UO-31 renal = system: UO-31 renal
smiles,measurement,setting,value
Cc1cc2nc(C(Cl)Cl)nc(-c3ccc(Cl)cc3)n2n1,GI50,786-0 renal,4930 nM
same,TGI,786-0 renal,> 100000 nM
same,GI50,A498 renal,1090 nM
same,TGI,A498 renal,2650 nM
same,GI50,A549 NSCLC,448 nM
same,TGI,A549 NSCLC,3280 nM
same,GI50,ACHN renal,386 nM
same,TGI,ACHN renal,2240 nM
same,GI50,BT-549 breast,2750 nM
same,TGI,BT-549 breast,> 100000 nM
same,GI50,CAKI-1 renal,798 nM
same,TGI,CAKI-1 renal,4110 nM
same,GI50,CCRF-CEM leukemia,2830 nM
same,TGI,CCRF-CEM leukemia,> 100000 nM
same,GI50,COLO 205 colon,603 nM
same,TGI,COLO 205 colon,2670 nM
same,GI50,DU-145 prostate,268 nM
same,TGI,DU-145 prostate,827 nM
same,GI50,EKVX NSCLC,1600 nM
same,TGI,EKVX NSCLC,4300 nM
same,GI50,HCC-2998 colon,788 nM
same,TGI,HCC-2998 colon,2330 nM
same,GI50,HCT-116 colon,566 nM
same,TGI,HCT-116 colon,> 33100 nM
same,GI50,HCT-15 colon,745 nM
same,TGI,HCT-15 colon,3470 nM
same,GI50,HL-60(TB) leukemia,1110 nM
same,GI50,HOP-62 NSCLC,864 nM
same,TGI,HOP-62 NSCLC,4270 nM
same,GI50,HOP-92 NSCLC,1530 nM
same,TGI,HOP-92 NSCLC,4660 nM
same,GI50,HS 578T breast,1340 nM
same,TGI,HS 578T breast,4600 nM
same,GI50,HT29 colon,360 nM
same,TGI,HT29 colon,3990 nM
same,GI50,IGROV1 ovarian,1380 nM
same,TGI,IGROV1 ovarian,5280 nM
same,GI50,K-562 leukemia,1390 nM
same,TGI,K-562 leukemia,> 28500 nM
same,GI50,KM12 colon,414 nM
same,TGI,KM12 colon,1740 nM
same,GI50,LOX IMVI melanoma,3950 nM
same,TGI,LOX IMVI melanoma,> 100000 nM
same,GI50,M14 melanoma,1310 nM
same,TGI,M14 melanoma,3250 nM
same,GI50,MALME-3M melanoma,1480 nM
same,TGI,MALME-3M melanoma,2990 nM
same,GI50,MCF7 breast,465 nM
same,TGI,MCF7 breast,5100 nM
same,GI50,MDA-MB-231 breast,1230 nM
same,TGI,MDA-MB-231 breast,4210 nM
same,GI50,MDA-MB-435,1260 nM
same,TGI,MDA-MB-435,2790 nM
same,GI50,MOLT-4 leukemia,1010 nM
same,TGI,MOLT-4 leukemia,> 100000 nM
same,GI50,NCI-H226 lung,3280 nM
same,TGI,NCI-H226 lung,> 100000 nM
same,GI50,NCI-H23 lung,479 nM
same,TGI,NCI-H23 lung,2420 nM
same,GI50,NCI-H460 lung,304 nM
same,TGI,NCI-H460 lung,1090 nM
same,GI50,NCI-H522 lung,1560 nM
same,TGI,NCI-H522 lung,5230 nM
same,GI50,NCI/ADR-RES ovarian,682 nM
same,TGI,NCI/ADR-RES ovarian,3890 nM
same,GI50,OVCAR-3 ovarian,491 nM
same,TGI,OVCAR-3 ovarian,1870 nM
same,GI50,OVCAR-4 ovarian,1060 nM
same,TGI,OVCAR-4 ovarian,4380 nM
same,GI50,OVCAR-5 ovarian,1850 nM
same,TGI,OVCAR-5 ovarian,5560 nM
same,GI50,OVCAR-8 ovarian,964 nM
same,TGI,OVCAR-8 ovarian,> 100000 nM
same,GI50,PC-3 prostate,1330 nM
same,TGI,PC-3 prostate,4160 nM
same,GI50,RPMI-8226 leukemia,1360 nM
same,TGI,RPMI-8226 leukemia,6450 nM
same,GI50,RXF 393 renal,764 nM
same,TGI,RXF 393 renal,2270 nM
same,GI50,SF-268 CNS,1340 nM
same,TGI,SF-268 CNS,4470 nM
same,GI50,SF-295 CNS,1300 nM
same,TGI,SF-295 CNS,4750 nM
same,GI50,SK-MEL-28 melanoma,1630 nM
same,TGI,SK-MEL-28 melanoma,3380 nM
same,GI50,SK-MEL-5 melanoma,1680 nM
same,TGI,SK-MEL-5 melanoma,3480 nM
same,GI50,SK-OV-3 ovarian,2110 nM
same,TGI,SK-OV-3 ovarian,7000 nM
same,GI50,SN12C renal,2640 nM
same,TGI,SN12C renal,> 100000 nM
same,GI50,SNB-19 CNS,1050 nM
same,TGI,SNB-19 CNS,4640 nM
same,GI50,SNB-75 CNS,1100 nM
same,TGI,SNB-75 CNS,4340 nM
same,GI50,SR leukemia,372 nM
same,TGI,SR leukemia,> 21100 nM
same,GI50,SW-620 colon,433 nM
same,TGI,SW-620 colon,2930 nM
same,GI50,T-47D breast,2190 nM
same,TGI,T-47D breast,> 26300 nM
same,GI50,TK-10 renal,1850 nM
same,TGI,TK-10 renal,5210 nM
same,GI50,U251 CNS,509 nM
same,TGI,U251 CNS,3700 nM
same,GI50,UACC-257 melanoma,2300 nM
same,TGI,UACC-257 melanoma,5490 nM
same,GI50,UO-31 renal,1420 nM
same,TGI,UO-31 renal,3920 nM
